The values below come from patent publication US20260055126A1, “SMALL MOLECULE COMPOUNDS WITH PHOSPHORYLATED ARYL STRUCTURES AND USE THEREOF” (HANGZHOU PHECDAMED CO., LTD., priority 2022, published 2026).

In series [1] the target is recombinant TEAD1 protein central pocket (Homo sapiens (Human), UniProt P28347). As to the kind of experiment: Competitive thiol binding assay (CPM assay), TEAD1. Particulars: 150 nM recombinant TEAD protein, 150 nM CPM. The protocol:
Diluting the tested compound in gradient to 5 uL with buffer (25 mM HEPES, 150 mM NaCl, pH6.5), then adding 5 μL of the newly prepared 0.45 uM recombinant TEAD protein solution, and incubating at room temperature for 10 minutes. […] After shaking the plate at room temperature for 1 hour, measuring the fluorescence intensity (Ex/Em: 380/470 nm).

Series [2] can be described thus: Mouse plasma pharmacokinetic test. In kind it is in vivo, CD-1 mice. The source says: In this example, different compounds are used to perform a mouse pharmacokinetic experiment, and the specific steps are as follows: Animal information: CD-1 mice, male, about 20 g, purchase from Beijing Weitonglihua Experimental Animal Technology Co., Ltd.
Animal dietary status: Animals are not fasted before administration and allowed to drink water freely.
Compound preparation method: for intragastric administration (IG)(G1 group), preparing with 0.5% CMC-Na, and for intravenous injection(IV) (G2 group), preparing 5% DMSO+30% PEG400+65% water. […]
Sampling time points of G1 group: 8 points in total, namely 10 min, 30 min, 1 h, 2 h, 4 h, 6 h, 8 h and 24 h after administration, among them, animals G1M01-G1M03 are sampled at 3 time points, namely 10 min, 1 h and 6 h; animals G1M04-G1M06 are sampled at 3 time points, namely 30 min, 2 h and 8 h; animals G1M07-G1M09 are sampled at 2 time points, namely 4 h and 24 h.
Sampling time points of G2 group: 9 points in total, namely 5 min, 10 min, 30 min, 1 h, 2 h, 4 h, 6 h, 8 h, 24 h after administration. It is recommended that animals G2M01-G2M03 are sampled at 3 time points, namely 5 min, 1 h, and 6 h; animals G2M04-G2M06 are sampled at 3 time points, namely 10 min, 2 h, and 8 h; animals G2M07-G2M09 are sampled at 3 time points, namely 30 min, 4 h, and 24 h.
Sample collection: On the day of the experiment, collecting approximately 0.1 mL of whole blood samples at each preset time point and placing in EDTA-K2 anticoagulant tubes.
Sample processing: Within 30 minutes after whole blood sample collection, centrifuging at 4° C., 12,000 rpm for 5 minutes to separate plasma, collecting the upper plasma sample into a sample tube, and freezing the plasma sample in a −10˜−30° C. refrigerator within 30 minutes and transferring to a −60˜−90° C. refrigerator within 24 hours.
Sample testing and data processing: LC/MS/MS testing, WinNonlin for fitting and pharmacokinetic parameter calculation.

Series [3] has as its target recombinant TEAD4 protein (217-434, Uniprot ID: Q15561) (Homo sapiens (Human), UniProt Q15561). In words: Thermal shift assay (protein melting point curve), TEAD4. The format is binding. Particulars: 10 μM TEAD protein, 50 μM test compound.
A short description of series [4]: In vitro liver microsome stability, rat. In kind it is in vitro ADME. The settings on record: rat liver microsomes. How it is done:
Testosterone is selected as the positive reference compound. The specific method is as follows:
Preparing 0.1MK3 PO4 (pH 7.4) buffer and 3×NADPH stock solution (6 mM, 5 mg/mL), and preheating in a 37° C. water bath; preparing spiking solution of tested compound and control compound: adding 5 μL compound stock solution (10 mM) to 95 μL acetonitrile; preparing 1.5 μM spiking solution in microsomes (0.75 mg/mL): add 1.5 μL spiking solution and 18.75 μL liver microsome solution (20 mg/mL) to 479.75 μL K3PO4 buffer; taking 30 μL spiking solution in microsomes and adding it to the multiwell plate, and incubating at 37° C. for 5 min; adding 15 μL of NADPH stock solution to each well, starting to react, and timing; adding 150 μL of acetonitrile solution containing IS at 0 min, 5 min, 15 min, 30 min, 45 min and 60 min respectively to terminate the reaction; after 10 min of oscillation, centrifuging the reaction at 6000 rpm for 15 min; taking 80 μL of supernatant from each well for LC/MS detection and calculating Ti/2.
Liver microsomes of mice, rats, dogs, and human used in the experiment are purchased from Xenotech.
On the technique in general: Liver microsomes are vesicles of endoplasmic reticulum, rich in cytochrome P450 enzymes.

Sequence of recombinant TEAD1 protein central pocket (P28347 whole entry): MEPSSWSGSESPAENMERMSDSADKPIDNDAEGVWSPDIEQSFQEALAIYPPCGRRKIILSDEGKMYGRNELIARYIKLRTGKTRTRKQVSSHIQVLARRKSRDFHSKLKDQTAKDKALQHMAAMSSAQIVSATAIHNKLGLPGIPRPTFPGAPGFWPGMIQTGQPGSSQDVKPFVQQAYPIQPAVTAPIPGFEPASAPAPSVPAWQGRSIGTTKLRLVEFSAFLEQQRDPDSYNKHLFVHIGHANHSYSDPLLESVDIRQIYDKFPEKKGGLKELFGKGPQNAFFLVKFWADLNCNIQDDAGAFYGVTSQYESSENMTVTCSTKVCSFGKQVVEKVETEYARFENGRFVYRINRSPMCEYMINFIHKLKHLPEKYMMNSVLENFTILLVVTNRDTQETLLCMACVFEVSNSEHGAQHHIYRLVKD
Sequence of recombinant TEAD4 protein (217-434, Uniprot ID: Q15561) (Q15561 217-434): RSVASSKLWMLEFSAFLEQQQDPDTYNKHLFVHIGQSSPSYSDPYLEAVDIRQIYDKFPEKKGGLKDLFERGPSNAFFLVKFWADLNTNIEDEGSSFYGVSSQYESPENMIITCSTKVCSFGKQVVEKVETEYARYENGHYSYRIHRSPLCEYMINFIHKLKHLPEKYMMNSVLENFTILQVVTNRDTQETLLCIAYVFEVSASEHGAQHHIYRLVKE

What is called IC50 is the concentration needed to halve the response being measured. For orientation: Cmax means the maximum level reached in the sampled fluid or tissue. The term Tmax denotes the time at which the peak concentration occurs. As usually defined, the Vss is a proportionality between amount in the body and measured concentration, not a real space. With `CP(C)(=O)c1ccc(NCc2ccc(C(F)(F)F)cc2)c(-c2nccc(OC3COC3)n2)c1` [Compound 17], the IC50 in series [1] was 290 nM. In series [2] (CD-1 mice, IG 10 mg/kg vs IV 1 mg/kg), this compound registered a F % of 51.9%. Further, in series [2] (CD-1 mice, single IG 10 mg/kg), the AUC0-t was 4662 ng·h/mL, the “AUC0-∞” value was 5688 ng·h/mL, the Cmax was determined as 1477 ng/mL and the MRT0-t was determined as 2.84 h. Further, in series [2] (CD-1 mice, single IG 10 mg/kg), the “MRT0-∞” value was 4.66 h, the Tmax turned out to be 0.5 h and the t1/2 turned out to be 3.46 h. Also, in series [2] (CD-1 mice, single IV 1 mg/kg), the AUC0-t came to 899 ng·h/mL, the “AUC0-∞” value worked out at 924 ng·h/mL, the CL turned out to be 18.03 mL/min/kg and the Cmax stood at 598 ng/mL. In series [2] (CD-1 mice, single IV 1 mg/kg), the MRT0-t turned out to be 1.55 h, the “MRT0-∞” value was 1.80 h, the Vss came to 1.947 L/kg and the t1/2 is given as 1.94 h. In series [2] (mice), the “pharmacokinetic properties in mice” value is listed as “good pharmacokinetic properties”. Also, the “Δ T m (TEAD4)” value in series [3] is given as “++”. This compound showed a rat half-life in series [4] of 0.8 h.
